Assay results from patent US20220315890A1, “NERVE CELL AND APPLICATION THEREOF” (FUJIFILM Corporation, priority 2021, published 2022).

How the values were obtained:
[1] = target: T1, tau aggregation in hiPSC-derived nerve cells overexpressing tau (1N4R) (Homo sapiens, UniProt P10636); assay: Tau aggregation: Tau oligomer antibody (T22)-positive protrusion length standardized with 4R tau antibody-positive protrusion length; assay type: cell-based; conditions: at the compound concentration at which a cytoprotective action was exhibited; fluorescent staining; FIG. 8
T1 construct: expressed in transfected cells; host or cells: human iPS cell-derived nerve cells (Ngn2 / miR-9/9*-124 induced), transduced with CSII-TRE-hTau (1N4R)-IRES-Zeo lentivirus, DOX-induced
T1 sequence (P10636 1-412 isoform P10636-7): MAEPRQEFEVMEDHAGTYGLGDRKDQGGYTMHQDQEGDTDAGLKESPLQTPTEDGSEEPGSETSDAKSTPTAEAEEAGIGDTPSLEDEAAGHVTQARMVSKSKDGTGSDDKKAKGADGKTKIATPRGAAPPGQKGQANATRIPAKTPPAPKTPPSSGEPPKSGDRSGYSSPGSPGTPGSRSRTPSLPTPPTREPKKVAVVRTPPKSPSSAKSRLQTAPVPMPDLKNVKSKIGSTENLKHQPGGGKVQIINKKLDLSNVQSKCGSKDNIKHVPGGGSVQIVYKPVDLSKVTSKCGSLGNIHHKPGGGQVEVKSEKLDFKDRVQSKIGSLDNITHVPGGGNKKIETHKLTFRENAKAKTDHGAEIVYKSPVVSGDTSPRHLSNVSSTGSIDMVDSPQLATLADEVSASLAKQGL
Experimental: (§1) Frozen nerve cells were thawed in a hot water bath and plated on a 96-well plate at the number of cells of about 3×10^4 cells/well or on a 12-well plate at about 30×10^4 cells/well, where the plates had been coated with poly-D-lysine (PDL) and iMatrix (Nippi, Incorporated), in a neural replating medium containing DOX (a medium obtained by adding 2% of a B27 Plus supplement, 1% of a Culture One supplement, 200 μmol/L of dbcAMP, 200 μmol/L of L-ascorbic acid, and 2 μg/mL of DOX to a Neurobasal plus:DMEM/F12 HAM=1:1 medium). In addition, 1 μmol/L of Tau Accell siRNA (Dharmacon, Inc., #A-012488-13) described in (7) below or a compound described in (9) below was added thereto. After the culture in a CO2 incubator at 37° C. for 2 days, the cells were […] and cultured for about 7 days, and then various evaluations were carried out.
The nerve cells after the overexpression of tau according to the method (4) were subjected to fluorescent staining using a tau oligomer antibody (T22) (Merck Millipore).
The cytoprotective action of the compound was measured by a CellTiter Glo assay. The effect on tau aggregation was quantified by standardizing the Tau oligomer antibody-positive protrusion length in the neurite obtained by fluorescent staining with the 4R tau antibody-positive protrusion length.

[2] = system: hiPSC-derived nerve cells overexpressing tau (1N4R); assay: Nerve cell death / cell survival by CellTiter Glo assay after overexpression of tau; assay type: cell-based, human; conditions: compound added at replating, 2 days before lentivirus infection, cultured about 7 days, FIG. 8
Experimental: as §1
The decrease in cell survival rate due to overexpression of tau according to the method (4) was confirmed by the CellTiter Glo assay (Promega Corporation). It was confirmed that about 20% to 90% of nerve cell death occurred due to overexpression of tau depending on the amount of lentivirus.
According to the method (4), the drug efficacy of methylene blue and isoproterenol, which had been reported to have an inhibitory action on tau aggregation in nerve cells after the overexpression of tau, and a microtubule stabilizer epothilone D was evaluated. The cytoprotective action of the compound was measured by a CellTiter Glo assay. The effect on tau aggregation was quantified by standardizing the Tau oligomer antibody-positive protrusion length in the neurite obtained by fluorescent staining with the 4R tau antibody-positive protrusion length.

Row | SMILES | effect on tau aggregation (tau polymerization) [1] | cytoprotective action (CellTiter Glo assay) [2]
1 | C/C1=C/C[C@@H](/C(C)=C/c2csc(C)n2)OC(=O)C[C@H](O)C(C)(C)C(=O)[C@H](C)[C@@H](O)[C@@H](C)CCC1 [epothilone D] | not changed | partial cytoprotective action
2 | CC(C)NCC(O)c1ccc(O)c(O)c1 (stereo not drawn) [isoproterenol] | partial inhibitory action on tau aggregation | partial cytoprotective action
3 | CN(C)c1ccc2nc3ccc(=[N+](C)C)cc-3sc2c1 [methylene blue] | partial inhibitory action on tau aggregation | partial cytoprotective action
